Substitutions are numbered along the chain they refer to.
Legend:
[1] = molecular target: T1, Y140A mutant mouse 5-HT3ASR (Mus musculus, UniProt P23979, Y141A); assay: [^3H]granisetron saturation binding, Y140A receptor; details: ± SE
T1 sequence (P23979 24-483 isoform P23979-2 Y141A): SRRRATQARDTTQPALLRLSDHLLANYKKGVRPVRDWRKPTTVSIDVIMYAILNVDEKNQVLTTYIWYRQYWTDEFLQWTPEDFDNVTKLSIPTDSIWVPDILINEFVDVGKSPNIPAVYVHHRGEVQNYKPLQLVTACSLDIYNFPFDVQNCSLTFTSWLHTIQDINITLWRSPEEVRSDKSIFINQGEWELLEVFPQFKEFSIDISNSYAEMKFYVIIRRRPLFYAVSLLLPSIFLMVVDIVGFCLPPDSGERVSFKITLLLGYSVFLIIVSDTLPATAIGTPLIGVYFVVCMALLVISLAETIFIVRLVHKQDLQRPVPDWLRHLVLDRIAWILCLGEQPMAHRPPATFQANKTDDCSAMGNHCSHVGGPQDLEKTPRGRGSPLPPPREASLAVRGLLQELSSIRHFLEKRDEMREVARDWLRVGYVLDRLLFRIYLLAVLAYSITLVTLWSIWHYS

[2] = molecular target: T2, V141A mutant mouse 5-HT3ASR (Mus musculus, UniProt P23979, V142A); assay: [^3H]granisetron saturation binding, V141A receptor; details: ± SE
T2 sequence (P23979 24-483 isoform P23979-2 V142A): T1 sequence (P23979 24-483 isoform P23979-2 Y141A) with A118Y, V119A

[3] = molecular target: T3, R146A mutant mouse 5-HT3ASR (Mus musculus, UniProt P23979, R147A); assay: [^3H]granisetron saturation binding, R146A receptor; details: ± SE
T3 sequence (P23979 24-483 isoform P23979-2 R147A): T1 sequence (P23979 24-483 isoform P23979-2 Y141A) with A118Y, R124A

[4] = molecular target: T4, G147A mutant mouse 5-HT3ASR (Mus musculus, UniProt P23979, G148A); assay: [^3H]granisetron saturation binding, G147A receptor
T4 sequence (P23979 24-483 isoform P23979-2 G148A): T1 sequence (P23979 24-483 isoform P23979-2 Y141A) with A118Y, G125A

[5] = molecular target: T5, V149A mutant mouse 5-HT3ASR (Mus musculus, UniProt P23979, V150A); assay: [^3H]granisetron saturation binding, V149A receptor
T5 sequence (P23979 24-483 isoform P23979-2 V150A): T1 sequence (P23979 24-483 isoform P23979-2 Y141A) with A118Y, V127A

[6] = molecular target: T6, Q150A mutant mouse 5-HT3ASR (Mus musculus, UniProt P23979, Q151A); assay: [^3H]granisetron saturation binding, Q150A receptor; details: ± SE
T6 sequence (P23979 24-483 isoform P23979-2 Q151A): T1 sequence (P23979 24-483 isoform P23979-2 Y141A) with A118Y, Q128A

Bmax [1]: 0.44 ± .08 pmol/mg protein | Bmax [2]: 0.32 ± .04 pmol/mg protein | Hill coefficient (n) [2]: 1.3 ± 0.22 | Bmax [3]: 1.0 ± .16 pmol/mg protein | binding of [^3H]granisetron [4]: No detectable binding | binding of [^3H]granisetron [5]: No detectable binding | Bmax [6]: 0.56 ± .09 pmol/mg protein
Compound: CN1C2CCCC1CC(NC(=O)c1nn(C)c3ccccc13)C2 (stereo not shown) [[^3H]granisetron]
